Measurements as given in US8106214B2, “2-imino-4-(thio) oxo-5-polycyclovinylazolines for use as PI3 kinase inhibitors” (Merck Serono SA, priority 2003, dated 2012).
Read-outs that look alike come from different tables or passages of the source.

Experiments:
[1] = target: Human recombinant GST-PI3Kγ (Homo sapiens, UniProt P48736); experiment: High Throughput PI3K Lipid Kinase Assay (SPA, neomycin-coated beads); format: biochemical
Protocol: a) High Throughput PI3K Lipid Kinase Assay (Binding Assay):
The assay combines the scintillation proximity assay technology (SPA, Amersham) with the capacity of neomycin (a polycationic antibiotic) to bind phospholipids with high affinity and specificity. The Scintillation Proximity Assay is based on the properties of weakly emitting isotopes (such as ^3H, ^125I, ^33P). Coating SPA beads with neomycin allows the detection of phosphorylated lipid substrates after incubation with recombinant PI3K and radioactive ATP in the same well, by capturing the radioactive phospholipids to the SPA beads through their specific binding to neomycin.
To a 384 wells MTP containing 5 μl of the test compound of Formula (D) (solubilized in 6% DMSO; to yield a concentration of 100, 30, 10, 3, 1, 0.3, 0.1, 0.03, 0.01, 0.001 μM of the test compound), the following assay components are added. 1) 5 μl (58 ng) of Human recombinant GST-PI3Kγ (in Hepes 40 mM, pH 7.4, DTT 1 mM and ethylenglycol 5%) 2) 10 μl of lipid micelles and 3) 10 μl of Kinase buffer ([^33P]γ-ATP 45 μM/60 nCi, MgCl2 30 mM, DTT 1 mM, β-Glycerophosphate 1 mM, Na3VO4 100 μM, Na Cholate 0.3%, in Hepes 40 mM, pH 7.4). After incubation at room temperature for 180 minutes, with gentle agitation, the reaction is stopped by addition of 60 μl of a solution containing 100 μg of neomycin-coated PVT SPA beads in PBS containing ATP 10 mM and EDTA 5 mM. The assay is further incubated at room temperature for 60 minutes with gentle agitation to allow binding of phospholipids to neomycin-SPA beads. After precipitation of the neomycin-coated PVT SPA beads for 5 minutes at 1500×g, radioactive PtdIns(3)P is quantified by scintillation counting in a Wallac MicroBeta™ plate counter.
The values indicated in respect of PI3Kγ refer to the IC50 (μM), i.e. the amount necessary to achieve 50% inhibition of said target. Said values show a considerable potency of the 2-imino-azolinone-vinyl fused-benzene compounds with regard to PI3Kγ.

[2] = system: C5a-mediated AKT phosphorylation in Raw 264-7 macrophages; experiment: Cell based ELISA: Akt/PKB phosphorylation in macrophages after C5a stimulation; details: Mus musculus, RAW264.7, 5 min; compound at 10 μM; Raw 264-7 macrophages stimulated with 50 nM C5a for 5 minutes; read-out: percentage of inhibition of C5a-mediated AKT phosphorylation
Protocol: b) Cell Based ELISA to Monitor PI3K Inhibition:
Measurement of Akt/PKB phosphorylation in macrophages after stimulation with human recombinant Complement 5a (C5a) from Sigma (C5788): Raw 264: Raw 264-7 macrophages (cultured in DMEM-F12 medium containing 10% Fetal Calf serum and antibiotics) are plated at 20,000 cells/well in a 96 MTP 24 h before cell stimulation. Previous to the stimulation with 50 nM of Complement 5a during 5 minutes, Cells are serum starved for 2 h, and pre-treated with inhibitors for 20 minutes. After stimulation cells are fixed in 4% formaldehyde for 20 minutes and washed 3 times in PBS containing 1% Triton X-100 (PBS/Triton). Endogenous peroxidase is blocked by a 20 minutes incubation in 0.6% H2O2 and 0.1% Sodium Azide in PBS/Triton and washed 3 times in PBS/Triton. Cells are then blocked by 60 minutes incubation with 10% foetal calf serum in PBS/Triton. Next, phosphorylated AKWPKB is detected by an overnight incubation at 4° C. with first antibody (anti phospho Serine 473 Akt IHC, Cell Signalling) diluted 800-fold in PBS/Triton, containing 5% bovine serum albumin (BSA). […] The reaction is stopped by addition of 50 μl of 1 M SO4H2 and absorbance is read at 450 nm. […]

Class I PI3-kinases = details: cited from earlier work

Human recombinant GST-PI3Kγ, sequence (P48736 whole entry): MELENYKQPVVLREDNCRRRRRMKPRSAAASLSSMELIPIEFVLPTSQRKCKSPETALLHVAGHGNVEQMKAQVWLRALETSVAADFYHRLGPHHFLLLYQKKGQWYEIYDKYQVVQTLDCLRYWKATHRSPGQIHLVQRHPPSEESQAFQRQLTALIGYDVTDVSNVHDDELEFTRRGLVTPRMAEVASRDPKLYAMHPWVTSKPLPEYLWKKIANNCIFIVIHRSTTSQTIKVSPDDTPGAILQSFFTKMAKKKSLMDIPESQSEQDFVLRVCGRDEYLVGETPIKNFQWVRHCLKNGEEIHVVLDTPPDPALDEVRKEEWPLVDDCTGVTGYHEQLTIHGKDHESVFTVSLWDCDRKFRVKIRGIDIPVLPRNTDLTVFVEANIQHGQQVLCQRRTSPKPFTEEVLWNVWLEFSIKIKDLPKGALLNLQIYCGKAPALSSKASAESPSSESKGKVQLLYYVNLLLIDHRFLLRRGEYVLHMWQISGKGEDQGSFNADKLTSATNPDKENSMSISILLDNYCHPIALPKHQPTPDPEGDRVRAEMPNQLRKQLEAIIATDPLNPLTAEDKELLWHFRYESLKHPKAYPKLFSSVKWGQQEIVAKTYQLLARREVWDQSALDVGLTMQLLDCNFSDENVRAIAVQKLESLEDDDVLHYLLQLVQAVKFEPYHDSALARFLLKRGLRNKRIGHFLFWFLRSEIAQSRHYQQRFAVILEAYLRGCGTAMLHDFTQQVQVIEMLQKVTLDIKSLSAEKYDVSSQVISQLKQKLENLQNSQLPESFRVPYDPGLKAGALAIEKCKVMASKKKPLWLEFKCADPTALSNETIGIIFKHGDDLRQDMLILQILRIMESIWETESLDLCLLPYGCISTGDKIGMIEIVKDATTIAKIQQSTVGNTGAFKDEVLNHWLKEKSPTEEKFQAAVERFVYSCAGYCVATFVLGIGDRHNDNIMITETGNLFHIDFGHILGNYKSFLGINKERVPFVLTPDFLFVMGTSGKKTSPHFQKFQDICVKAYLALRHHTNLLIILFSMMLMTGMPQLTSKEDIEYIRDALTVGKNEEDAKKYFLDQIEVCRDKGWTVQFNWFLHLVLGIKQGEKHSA

| Molecule | IC50 [1] [µM] | also measured |
| --- | --- | --- |
| O=C1N/C(=N\S(=O)(=O)c2ccccc2)S/C1=C\c1ccc2c(c1)OCO2 [Example 8, N-(5-Benzo[1,3]dioxol-5-ylmethylene-4-oxo-thiazolidin-2-ylidene)-benzenesulfonamide] | – | inhibition at 10 µM [2]: 100% |
| CO/N=C1\NC(=O)/C(=C/c2ccc3c(c2)OCO3)S1 [Example 20, 5-Benzo[1,3]dioxol-5-ylmethylene-thiazolidine-2,4-dione 2-(O-methyl-oxime)] | < 1 | – |
| CS(=O)(=O)/N=C1\NC(=O)/C(=C/c2ccc3c(c2)OCO3)S1 [Example 10, N-(5-Benzo[1,3]dioxol-5-ylmethylene-4-oxo-thiazolidin-2-ylidene)-methanesulfonamide] | – | inhibition at 10 µM [2]: 80% |
| COC(=O)c1sccc1S(=O)(=O)N=C1NC(=O)/C(=C/c2ccc3ncccc3c2)S1 [Example 16, 3-(4-Oxo-5-quinolin-6-ylmethylene-thiazolidin-2-ylidenesulfamoyl)-thiophene-2-carboxylic acid methyl ester] | < 1 | – |
| O=c1cc(N2CCOCC2)oc2c(-c3ccccc3)cccc12 [LY294002] | – | IC50 (Class I PI3-kinases; Fruman et al. 1998, read-out: IC50 values against each of these PI3-kinases): 15 to 20 µM |
| wortmannin | – | IC50 (Class I PI3-kinases; read-out: IC50 values against each of the various Class I PI3-kinases): 0.001 to 0.01 µM |

Second part, led by results:

| IC50 [1] [µM] | Molecule | also measured |
| --- | --- | --- |
| < 1.5 | O=C1NC(=NCc2ccccc2)S/C1=C\c1ccc2c(c1)OCO2 [Example 22, 5-Benzo[1,3]dioxol-5-ylmethylene-2-benzylimino-thiazolidin-4-one] | – |
| < 1 | N#CN=C1NC(=O)/C(=C/c2ccc3nccnc3c2)S1 [Example 21, 4-Oxo-5-quinoxalin-6-ylmethylene-thiazolidin-2-ylidene-cyanamide] | – |
| < 1 | CN=C1NC(=O)/C(=C/c2ccc3ncnc(N(C)C)c3c2)S1 [Example 26, 5-(4-Dimethylamino-quinazolin-6-ylmethylene)-2-methylimino-thiazolidin-4-one] | – |
